{"source": "paper PMC9596378", "about": "“Discovery and molecular basis of subtype-selective cyclophilin inhibitors” (Nature Chemical Biology, 2022)", "experiment_in_all_cases": "Chymotrypsin coupled prolyl-isomerase assay", "type_in_all_cases": "biochemical", "key": {"CypG": {"target": "T1, CypG (Homo sapiens, UniProt Q13427)", "T1 construct": "PPIG (UniProtKB Entry Q13427: residues 1–179); His6 with thrombin site (pET28a LIC leader) (N); host or cells: E. coli BL21(DE3)", "T1 sequence (Q13427 1-179)": "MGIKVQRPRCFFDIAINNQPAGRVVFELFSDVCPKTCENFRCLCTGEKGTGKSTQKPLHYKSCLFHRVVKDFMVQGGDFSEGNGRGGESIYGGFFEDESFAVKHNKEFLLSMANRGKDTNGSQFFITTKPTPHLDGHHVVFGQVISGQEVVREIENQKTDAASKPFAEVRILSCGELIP", "conditions": "for prolyl-isomerase activity (raw dose-response value): CypG, in s^-1", "protocol": "(§1) Adapting a previously described protocol, with an Agilent Bravo Velocity 11 with a 384ST head, 90 µL assay buffer (25 mM HEPES pH 7.3, 100 mM NaCl, 0.01% Triton X-100) containing 5.28 nM cyclophilin was added into a flat, clear-bottom, black 384-well plate pre-chilled in a Corning CoolBox at 2–3 °C. Five microliters of compound pre-dissolved in 5% DMSO/assay buffer was then added to appropriate wells and incubated at 2–3 °C for 5 min. Five microliters of 0.5 mM α-chymotrypsin from bovine pancreas (Type II, lyophilized powder, Millipore-Sigma) in 20% 1 mM HCl/Assay Buffer was then added to each well and incubated at 2–3 °C for 5 min. The plate was then quickly transferred to a FLIPR Tetra High-Throughput Cellular Screening System (Molecular Devices). Using the internal liquid handling system of the FLIPR, 1 µL 0.5 mM Suc-AAPF-AMC (Chymotrypsin Substrate II, Millipore-Sigma) dissolved in 0.55 M LiCl/2,2,2-trifluoroethanol was added to each well, which was then mixed for 5 s, followed by immediate fluorescence measurements every 1 s for 330 s using a 360–380 nm excitation LED module and a 400–460 nm emission filter. Final concentrations of the plate include 5 nM cyclophilin, 0.25% DMSO, 25 µM α-chymotrypsin, 5 µM Suc-AAPF-AMC. Raw fluorescence data was analyzed by non-linear regression analysis with Prism v.9 by fitting one-phase association curves to each well. […] Rate constants calculated for each well (s^−1) were then normalized to substrate only (no prolyl-isomerase) and enzyme + substrate only controls. IC50 values were calculated as the value at which 50% inhibition was achieved on the non-linear regression fitted curve of each compound."}, "CypC": {"target": "T2, CypC (Homo sapiens, UniProt P45877)", "T2 construct": "PPIC (UniProtKB Entry P45877: residues 24–212); host or cells: E. coli BL21(DE3)", "T2 sequence (P45877 24-212)": "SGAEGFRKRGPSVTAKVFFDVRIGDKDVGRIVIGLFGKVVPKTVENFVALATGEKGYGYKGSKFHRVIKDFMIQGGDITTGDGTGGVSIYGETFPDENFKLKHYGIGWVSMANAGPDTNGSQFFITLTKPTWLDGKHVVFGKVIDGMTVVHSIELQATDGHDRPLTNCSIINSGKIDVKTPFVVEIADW", "conditions": "for prolyl-isomerase activity (raw dose-response value): CypC, in s^-1", "protocol": "as §1"}, "CypA": {"target": "T3, CypA (Homo sapiens, UniProt P62937)", "T3 construct": "PPIA (UniProtKB Entry P62937: residues 1–165); made in house; host or cells: E. coli BL21(DE3)", "T3 sequence (P62937 whole entry, the tested form may be a part)": "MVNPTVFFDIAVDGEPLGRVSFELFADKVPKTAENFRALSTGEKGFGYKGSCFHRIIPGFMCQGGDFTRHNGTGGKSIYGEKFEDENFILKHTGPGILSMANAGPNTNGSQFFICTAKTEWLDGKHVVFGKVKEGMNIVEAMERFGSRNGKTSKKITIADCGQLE", "conditions": "for prolyl-isomerase activity (raw dose-response value): CypA, in s^-1", "protocol": "as §1"}, "CypE": {"target": "T4, CypE (Homo sapiens, UniProt Q9UNP9)", "T4 construct": "PPIE (UniProtKB Entry Q9UNP9: residues 131–301); host or cells: E. coli BL21(DE3)", "T4 sequence (Q9UNP9 131-301)": "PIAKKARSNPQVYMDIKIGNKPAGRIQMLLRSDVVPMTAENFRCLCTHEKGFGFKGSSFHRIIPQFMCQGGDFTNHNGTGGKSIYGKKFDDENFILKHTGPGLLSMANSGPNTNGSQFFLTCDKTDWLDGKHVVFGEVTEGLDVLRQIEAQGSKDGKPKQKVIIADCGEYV", "conditions": "for prolyl-isomerase activity (raw dose-response value): CypE, in s^-1", "protocol": "as §1"}, "CypH": {"target": "T5, CypH (Homo sapiens, UniProt O43447)", "T5 construct": "PPIH (UniProtKB Entry O43447: residues 1–177); His6 with TEV site (2BT vector leader) (N); made in house; host or cells: E. coli BL21(DE3)", "T5 sequence (O43447 whole entry, the tested form may be a part)": "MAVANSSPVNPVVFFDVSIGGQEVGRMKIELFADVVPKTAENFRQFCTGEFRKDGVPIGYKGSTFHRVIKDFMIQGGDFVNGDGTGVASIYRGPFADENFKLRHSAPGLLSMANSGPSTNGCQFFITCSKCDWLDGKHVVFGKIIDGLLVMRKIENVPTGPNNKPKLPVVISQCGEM", "conditions": "for prolyl-isomerase activity (raw dose-response value): CypH", "protocol": "as §1"}}, "note": "Values joined by “and” are separate entries in the source; they are usually repeats but may differ in a detail not shown here. Equal values may be shown once. Read-outs that look alike come from different tables or passages of the source."}
{"compound": "NCCOCCNC(=O)[C@@H]1CCNC(=O)/C=C/C(=O)N2CCC[C@](Cc3ccccc3)(C2)C(=O)N[C@@H](Cc2ccc(-c3ccccc3)cc2)C(=O)NCc2ccccc2CC(=O)N1", "note": "[Compound B2]", "values": [{"measurement": "prolyl-isomerase activity (raw dose-response value)", "setting": "CypG; dose 6.25 µM", "result": "0.07439 and 0.0801 and 0.0712"}, {"measurement": "prolyl-isomerase activity (raw dose-response value)", "setting": "CypG; dose 12.5 µM", "result": "0.06556 and 0.07016 and 0.06297"}, {"measurement": "prolyl-isomerase activity (raw dose-response value)", "setting": "CypG; dose 25 µM", "result": "0.0539 and 0.06023 and 0.05271"}, {"measurement": "prolyl-isomerase activity (raw dose-response value)", "setting": "CypG; dose 50 µM", "result": "0.04026 and 0.03816 and 0.04547"}, {"measurement": "prolyl-isomerase activity (raw dose-response value)", "setting": "CypG; dose 100 µM", "result": "0.02765 and 0.03143"}, {"measurement": "IC50", "setting": "CypG; wild-type CypG, read-out: Wild-Type Cyclophilin Prolyl Isomerase Inhibition IC50 Values, CypG", "result": 37, "unit": "µM"}, {"measurement": "prolyl-isomerase activity (raw dose-response value)", "setting": "CypC; dose 0.00976562 µM", "result": "0.05723 and 0.05806 and 0.05564"}, {"measurement": "prolyl-isomerase activity (raw dose-response value)", "setting": "CypC; dose 0.0195312 µM", "result": "0.05812 and 0.0569 and 0.05659"}, {"measurement": "prolyl-isomerase activity (raw dose-response value)", "setting": "CypC; dose 0.0390625 µM", "result": "0.05511 and 0.05318 and 0.05171"}, {"measurement": "prolyl-isomerase activity (raw dose-response value)", "setting": "CypC; dose 0.078125 µM", "result": "0.04827 and 0.04606 and 0.04304"}, {"measurement": "prolyl-isomerase activity (raw dose-response value)", "setting": "CypC; dose 0.15625 µM", "result": "0.04287 and 0.04429 and 0.04035"}, {"measurement": "prolyl-isomerase activity (raw dose-response value)", "setting": "CypC; dose 0.3125 µM", "result": "0.03472 and 0.03475 and 0.034"}, {"measurement": "prolyl-isomerase activity (raw dose-response value)", "setting": "CypC; dose 0.625 µM", "result": "0.02805 and 0.0282 and 0.0272"}, {"measurement": "prolyl-isomerase activity (raw dose-response value)", "setting": "CypC; dose 1.25 µM", "result": "0.02258 and 0.02214 and 0.02094"}, {"measurement": "prolyl-isomerase activity (raw dose-response value)", "setting": "CypC; dose 2.5 µM", "result": "0.01704 and 0.018 and 0.01642"}, {"measurement": "prolyl-isomerase activity (raw dose-response value)", "setting": "CypC; dose 5 µM", "result": "0.01304 and 0.01485 and 0.01185"}, {"measurement": "prolyl-isomerase activity (raw dose-response value)", "setting": "CypC; dose 10 µM", "result": "0.009494 and 0.009626 and 0.009002"}, {"measurement": "IC50", "setting": "CypC; wild-type CypC, read-out: Wild-Type Cyclophilin Prolyl Isomerase Inhibition IC50 Values, CypC", "result": 0.38, "unit": "µM"}, {"measurement": "prolyl-isomerase activity (raw dose-response value)", "setting": "CypA; dose 0.00457247 µM", "result": "0.09251 and 0.1054 and 0.1209"}, {"measurement": "prolyl-isomerase activity (raw dose-response value)", "setting": "CypA; dose 0.0137174 µM", "result": "0.07185 and 0.09383 and 0.08908"}, {"measurement": "prolyl-isomerase activity (raw dose-response value)", "setting": "CypA; dose 0.0411523 µM", "result": "0.0832 and 0.08759 and 0.09561"}, {"measurement": "prolyl-isomerase activity (raw dose-response value)", "setting": "CypA; dose 0.123457 µM", "result": "0.08468 and 0.0712 and 0.08817"}, {"measurement": "prolyl-isomerase activity (raw dose-response value)", "setting": "CypA; dose 0.37037 µM", "result": "0.0566 and 0.04501 and 0.06387"}, {"measurement": "prolyl-isomerase activity (raw dose-response value)", "setting": "CypA; dose 1.11111 µM", "result": "0.03625 and 0.03272 and 0.04381"}, {"measurement": "prolyl-isomerase activity (raw dose-response value)", "setting": "CypA; dose 3.33333 µM", "result": "0.02153 and 0.02404 and 0.02804"}, {"measurement": "prolyl-isomerase activity (raw dose-response value)", "setting": "CypA; dose 10 µM", "result": "0.01608 and 0.01935 and 0.02238"}, {"measurement": "IC50", "setting": "CypA; wild-type CypA, read-out: Wild-Type Cyclophilin Prolyl Isomerase Inhibition IC50 Values, CypA", "result": 0.24, "unit": "µM"}, {"measurement": "prolyl-isomerase activity (raw dose-response value)", "setting": "CypE; dose 0.00976562 µM", "result": "0.1022 and 0.09371 and 0.09482"}, {"measurement": "prolyl-isomerase activity (raw dose-response value)", "setting": "CypE; dose 0.0195312 µM", "result": "0.1041 and 0.09004 and 0.09109"}, {"measurement": "prolyl-isomerase activity (raw dose-response value)", "setting": "CypE; dose 0.0390625 µM", "result": "0.08953 and 0.08464 and 0.08549"}, {"measurement": "prolyl-isomerase activity (raw dose-response value)", "setting": "CypE; dose 0.078125 µM", "result": "0.08163 and 0.08105 and 0.08006"}, {"measurement": "prolyl-isomerase activity (raw dose-response value)", "setting": "CypE; dose 0.15625 µM", "result": "0.07541 and 0.07108 and 0.06602"}, {"measurement": "prolyl-isomerase activity (raw dose-response value)", "setting": "CypE; dose 0.3125 µM", "result": "0.0578 and 0.05386 and 0.0523"}, {"measurement": "prolyl-isomerase activity (raw dose-response value)", "setting": "CypE; dose 0.625 µM", "result": "0.04345 and 0.04205 and 0.03853"}, {"measurement": "prolyl-isomerase activity (raw dose-response value)", "setting": "CypE; dose 1.25 µM", "result": "0.03208 and 0.02851 and 0.02629"}, {"measurement": "prolyl-isomerase activity (raw dose-response value)", "setting": "CypE; dose 2.5 µM", "result": "0.02324 and 0.0218 and 0.01925"}, {"measurement": "prolyl-isomerase activity (raw dose-response value)", "setting": "CypE; dose 5 µM", "result": "0.01397 and 0.01461 and 0.01313"}, {"measurement": "prolyl-isomerase activity (raw dose-response value)", "setting": "CypE; dose 10 µM", "result": "0.008566 and 0.009565 and 0.009677"}, {"measurement": "IC50", "setting": "CypE; wild-type CypE, read-out: Wild-Type Cyclophilin Prolyl Isomerase Inhibition IC50 Values, CypE", "result": 0.3, "unit": "µM"}, {"measurement": "prolyl-isomerase activity (raw dose-response value)", "setting": "CypH; dose 0.0228624 µM", "result": "0.05989 and 0.06269 and 0.07687"}, {"measurement": "prolyl-isomerase activity (raw dose-response value)", "setting": "CypH; dose 0.0685871 µM", "result": "0.06674 and 0.06641 and 0.06471"}, {"measurement": "prolyl-isomerase activity (raw dose-response value)", "setting": "CypH; dose 0.205761 µM", "result": "0.06507 and 0.06674 and 0.06594"}, {"measurement": "prolyl-isomerase activity (raw dose-response value)", "setting": "CypH; dose 0.617284 µM", "result": "0.06577 and 0.07132 and 0.06657"}, {"measurement": "prolyl-isomerase activity (raw dose-response value)", "setting": "CypH; dose 1.85185 µM", "result": "0.06049 and 0.06065 and 0.0705"}, {"measurement": "prolyl-isomerase activity (raw dose-response value)", "setting": "CypH; dose 5.55556 µM", "result": "0.06127 and 0.06318 and 0.06895"}, {"measurement": "prolyl-isomerase activity (raw dose-response value)", "setting": "CypH; dose 16.6667 µM", "result": "0.05909 and 0.0562 and 0.05955"}, {"measurement": "prolyl-isomerase activity (raw dose-response value)", "setting": "CypH; dose 50 µM", "result": "0.04477 and 0.04513 and 0.04995"}, {"measurement": "IC50", "setting": "CypH; prolyl-isomerase inhibition, 5 nM cyclophilin, read-out: IC50 CypH", "result": "~100", "unit": "µM"}, {"measurement": "IC50", "setting": "CypH; wild-type CypH, read-out: Wild-Type Cyclophilin Prolyl Isomerase Inhibition IC50 Values, CypH", "result": 100, "unit": "µM"}]}
